In patent US20100056519A1, “COMPOSITION AND METHOD FOR REDUCING PLATELET ACTIVATION AND FOR THE TREATMENT OF THROMBOTIC EVENTS” (priority 2008, published 2010):

Key:
Type in all cases: cell-based, human
[1] = tested on: LAMP-1 (CD107a); test: Unstimulated whole blood flow cytometry, LAMP-1; settings: for LAMP-1 (CD107a), Mean Fluorescence Intensity: unstimulated, Mean ± SD
Description: (§1) The methodology employed was conventional aggregation induced by 5 μM ADP, 1 μg/ml collagen, 10 μM TRAP, whole blood aggregation with 1 μg/ml collagen, Ultegra, and PFA-100 Analyzers, expression of 14 intact, and TRAP-stimulated major receptors by whole blood flow cytometry were utilized to assess platelet activity after preincubation with escalating concentrations of E5555 (20 ng/ml, 50 ng/ml, and 100 ng/ml). The experiments were performed in healthy volunteers, CAD patients treated with ASA, and CAD patients treated with ASA and clopidogrel combination (n=10, for each group).
(§2) An Informed Consent was obtained from all volunteers. Drug users were excluded from data analysis. The study was approved by Quorum Institutional Review Board. All subjects underwent blood sampling after at least 30 minutes of rest and two or more hours of fasting. Blood (28 ml) was drawn between 8 and 10 a.m. in order to avoid any diurnal influence and sampled from an antecubital vein using a 21-gauge butterfly needle containing 3.2% sodium citrate (1:9 volume) after having discarded the first 1.5 ml of free running blood. Four Vacutainer tubes (7.0 ml) were collected for a total of 28 ml of whole blood-citrate mixture from each study participant. Chronologically, blood samples were delivered to the core laboratory facility within 45 minutes after drawing. Then all tubes of blood-citrate mixture were pooled. One portion of pooled blood (5 ml) was kept as an internal control and pretreated with the vehicle. The remaining blood (23 ml) was used for the in vitro exposure to E5555 at concentrations of 20 ng/ml, 50 ng/ml, and 100 ng/ml. […] The platelet aggregation studies, Rapid Analyzers measures, and flow cytometry preparations were initiated within no more than 110 minutes following the blood draw, incubation with the drug, and preparation of the samples.
(§3) Formation of platelet-leukocyte aggregates was assessed by dual labeling with pan-platelet marker (CD151), and then with CD14, the macrophage receptor for endotoxin lipopolysaccharides (PharMingen, and Coulter, San Diego, Calif., USA). The tubes were then covered with aluminum foil and incubated at 37° C. for 40 minutes with gentle rotation. After incubation, samples were immediately analyzed on a Becton Dickinson FACScan flow cytometer. The instrument was set up to measure forward light scatter, and FITC fluorescence. All parameters were collected using four-decade logarithmic amplification. The data was retrieved in list mode files and then analyzed. P selectin was expressed as percent positive cells. Other antigens were expressed as log mean fluorescence intensity.

[2] = tested on: LAMP-1 (CD107a); test: TRAP-stimulated whole blood flow cytometry, LAMP-1; settings: Mean ± SD
Description: as §1, §2, §3
(§4) For flow cytometry (TRAP-stimulated) all of the above flow cytometry experiments were identically repeated utilizing prestimulation with 10 μmol/L TRAP for 5 minutes at 37° C. To determine statistics, a Paired Sign Test was used to define significance of differences between vehicle and E5555-treated groups. The Mann-Whitney U test was used to analyze nonparametric data. Normally distributed data were expressed as mean±standard error (m±SE), and skewed data as median (range). All P-values were two sided. All analysis was performed using the SPSS v9.0 program (SPSS Inc., Chicago, Ill.).

[3] = tested on: GPIIb antigen (CD41); test: Unstimulated whole blood flow cytometry, GPIIb antigen; settings: for GPIIb antigen (CD41), Mean Fluorescence Intensity: unstimulated, Mean ± SD
Description: as §1, §2, §3

[4] = tested on: platelets; test: Conventional platelet aggregation in PRP induced by 1 μg/ml collagen; settings: for Platelet Aggregation (%), Collagen 1 μg/mL: Mean ± SD
Description: as §1, §2
Platelet counts were determined in each PRP sample with a Coulter Counter ZM (Coulter Co., Hialeah, Fla.). Platelet numbers were adjusted to 3.50×10^8/ml for aggregation using homologous platelet-poor plasma. Platelet aggregation was stimulated with 5 μM ADP, 1 μg/ml collagen, or 10 μM TRAP. All agonists were obtained from Chronolog Corporation (Havertown, Pa.) and Sigma (St. Louis, Miss.). Platelet aggregation experiments were performed using a Chrono-Log Lumi-Aggregometer (model 560-Ca). Aggregation curves were recorded for 4 minutes and analyzed according to internationally established standards using Aggrolink® software. Platelet aggregability was expressed as the percentage of light transmittance change from baseline using platelet-poor plasma as a reference.

[5] = tested on: PAC-1 (GPIIb/IIIa); test: TRAP-stimulated whole blood flow cytometry, PAC-1; settings: Mean ± SD
Description: as §1, §2, §3, §4

[6] = tested on: VTNR (CD51/61); test: Unstimulated whole blood flow cytometry, vitronectin receptor; settings: for VTNR (CD51/61), Mean Fluorescence Intensity: unstimulated, Mean ± SD
Description: as §1, §2, §3

[7] = tested on: PAC-1 (GPIIb/IIIa); test: Unstimulated whole blood flow cytometry, PAC-1; settings: for PAC-1 (GPIIb/IIIa), Mean Fluorescence Intensity: unstimulated, Mean ± SD
Description: as §1, §2, §3

[8] = overall summary, stimulation not stated
[9] = E5555 20 ng/ml, Patients (ASA + C)
[10] = E5555 50 ng/ml, Patients (ASA + C)
[11] = E5555 100 ng/ml, Patients (ASA + C)
[12] = E5555 100 ng/ml, Patients (ASA)

Br.CCOc1cc2c(c(F)c1OCC)C(=N)N(CC(=O)c1cc(N3CCOCC3)c(OC)c(C(C)(C)C)c1)C2 [E5555, 1-(3-tert-butyl-4-methoxy-5-morpholinophenyl)-2-(5,6-diethoxy-7-fluoro-1-imino-1,3-dihydro-2H-isoindol-2-yl)ethanone hydrobromide]
LAMP-1, effect in words [1, 8]: not affected | LAMP-1 (CD107a), Mean Fluorescence Intensity [1, 9]: 4.2 ± 1.6 MFI | LAMP-1 (CD107a), Mean Fluorescence Intensity ([1]; E5555 20 ng/ml, Patients (ASA)): 4.3 ± 1.2 MFI | LAMP-1 (CD107a), Mean Fluorescence Intensity ([1]; E5555 20 ng/ml, Volunteers): 4.7 ± 0.5 MFI | LAMP-1 (CD107a), Mean Fluorescence Intensity [1, 10]: 4.7 ± 1.3 MFI | LAMP-1 (CD107a), Mean Fluorescence Intensity ([1]; E5555 50 ng/ml, Patients (ASA)): 5.0 ± 1.7 MFI | LAMP-1 (CD107a), Mean Fluorescence Intensity ([1]; E5555 50 ng/ml, Volunteers): 4.6 ± 0.6 MFI | LAMP-1 (CD107a), Mean Fluorescence Intensity [1, 11]: 4.8 ± 1.4 MFI | LAMP-1 (CD107a), Mean Fluorescence Intensity [1, 12]: 4.3 ± 1.5 MFI | LAMP-1 (CD107a), Mean Fluorescence Intensity ([1]; E5555 100 ng/ml, Volunteers): 4.4 ± 1.0 MFI | LAMP-1 (CD107a), Mean Fluorescence Intensity [2, 9]: 4.0 ± 0.8 MFI | LAMP-1 (CD107a), Mean Fluorescence Intensity ([2]; E5555 20 ng/ml, Patients (ASA)): 4.1 ± 0.7 MFI | LAMP-1 (CD107a), Mean Fluorescence Intensity ([2]; E5555 20 ng/ml, Volunteers): 5.9 ± 0.8 MFI | LAMP-1 (CD107a), Mean Fluorescence Intensity [2, 10]: 3.2 ± 1.0 MFI | LAMP-1 (CD107a), Mean Fluorescence Intensity ([2]; E5555 50 ng/ml, Patients (ASA)): 4.0 ± 0.5 MFI | LAMP-1 (CD107a), Mean Fluorescence Intensity ([2]; E5555 50 ng/ml, Volunteers): 4.9 ± 0.4 MFI | LAMP-1 (CD107a), Mean Fluorescence Intensity [2, 11]: 3.0 ± 1.1 MFI | LAMP-1 (CD107a), Mean Fluorescence Intensity [2, 12]: 3.1 ± 0.7 MFI | LAMP-1 (CD107a), Mean Fluorescence Intensity ([2]; E5555 100 ng/ml, Volunteers): 4.7 ± 0.8 MFI | GP IIb/IIIa antigen expression, effect in words [3, 8]: significant reduction | GPIIb antigen (CD41), Mean Fluorescence Intensity [3, 9]: 219 ± 25 MFI | GPIIb antigen (CD41), Mean Fluorescence Intensity ([3]; E5555 20 ng/ml, Patients (ASA)): 391 ± 44 MFI | GPIIb antigen (CD41), Mean Fluorescence Intensity ([3]; E5555 20 ng/ml, Volunteers): 423 ± 27 MFI | GPIIb antigen (CD41), Mean Fluorescence Intensity [3, 10]: 240 ± 32 MFI | GPIIb antigen (CD41), Mean Fluorescence Intensity ([3]; E5555 50 ng/ml, Patients (ASA)): 404 ± 31 MFI | GPIIb antigen (CD41), Mean Fluorescence Intensity ([3]; E5555 50 ng/ml, Volunteers): 409 ± 25 MFI | GPIIb antigen (CD41), Mean Fluorescence Intensity [3, 11]: 233 ± 30 MFI | GPIIb antigen (CD41), Mean Fluorescence Intensity [3, 12]: 396 ± 42 MFI | GPIIb antigen (CD41), Mean Fluorescence Intensity ([3]; E5555 100 ng/ml, Volunteers): 416 ± 24 MFI | inhibition of platelet activity, aggregation induced by collagen ([4]; ASA-treated patients with coronary artery disease): 10-12% | collagen-induced aggregation, effect in words ([4]; CAD patients treated with ASA+clopidogrel): moderate inhibition | Platelet Aggregation (%), Collagen 1 μg/mL ([4]; E5555 20 ng/ml, CAD patients treated with ASA + clopidogrel): 20.6 ± 3.2 % | Platelet Aggregation (%), Collagen 1 μg/mL ([4]; E5555 20 ng/ml, CAD patients treated with ASA): 23.9 ± 4.8 % | Platelet Aggregation (%), Collagen 1 μg/mL ([4]; E5555 20 ng/ml, healthy volunteers): 67.6 ± 6.2 % | Platelet Aggregation (%), Collagen 1 μg/mL ([4]; E5555 50 ng/ml, CAD patients treated with ASA + clopidogrel): 24.0 ± 3.3 % | Platelet Aggregation (%), Collagen 1 μg/mL ([4]; E5555 50 ng/ml, CAD patients treated with ASA): 26.1 ± 4.0 % | Platelet Aggregation (%), Collagen 1 μg/mL ([4]; E5555 50 ng/ml, healthy volunteers): 69.1 ± 6.5 % | Platelet Aggregation (%), Collagen 1 μg/mL ([4]; E5555 100 ng/ml, CAD patients treated with ASA + clopidogrel): 21.7 ± 4.2 % | Platelet Aggregation (%), Collagen 1 μg/mL ([4]; E5555 100 ng/ml, CAD patients treated with ASA): 25.7 ± 5.2 % | Platelet Aggregation (%), Collagen 1 μg/mL ([4]; E5555 100 ng/ml, healthy volunteers): 72.8 ± 7.5 % | inhibition of conventional platelet aggregation induced by collagen ([4]; healthy volunteers, E5555 20, 50, and 100 ng/ml): 15-20% | inhibition of collagen-induced platelet aggregation in plasma ([4]; overall summary of the study): 10-15% | PAC-1 (GPIIb/IIIa), Mean Fluorescence Intensity [5, 9]: 41 ± 5 MFI | PAC-1 (GPIIb/IIIa), Mean Fluorescence Intensity ([5]; E5555 20 ng/ml, Patients (ASA)): 52 ± 6 MFI | PAC-1 (GPIIb/IIIa), Mean Fluorescence Intensity ([5]; E5555 20 ng/ml, Volunteers): 68 ± 8 MFI | PAC-1 (GPIIb/IIIa), Mean Fluorescence Intensity [5, 10]: 9 ± 1 MFI | PAC-1 (GPIIb/IIIa), Mean Fluorescence Intensity ([5]; E5555 50 ng/ml, Patients (ASA)): 9 ± 3 MFI | PAC-1 (GPIIb/IIIa), Mean Fluorescence Intensity ([5]; E5555 50 ng/ml, Volunteers): 17 ± 9 MFI | PAC-1 (GPIIb/IIIa), Mean Fluorescence Intensity [5, 11]: 5 ± 2 MFI | PAC-1 (GPIIb/IIIa), Mean Fluorescence Intensity [5, 12]: 4 ± 1 MFI | PAC-1 (GPIIb/IIIa), Mean Fluorescence Intensity ([5]; E5555 100 ng/ml, Volunteers): 7 ± 3 MFI | vitronectin receptor expression, effect in words [6, 8]: significant reduction | VTNR (CD51/61), Mean Fluorescence Intensity [6, 9]: 7.9 ± 1.8 MFI | VTNR (CD51/61), Mean Fluorescence Intensity ([6]; E5555 20 ng/ml, Patients (ASA)): 8.4 ± 1.5 MFI | VTNR (CD51/61), Mean Fluorescence Intensity ([6]; E5555 20 ng/ml, Volunteers): 8.7 ± 0.6 MFI | VTNR (CD51/61), Mean Fluorescence Intensity [6, 10]: 8.2 ± 1.6 MFI | VTNR (CD51/61), Mean Fluorescence Intensity ([6]; E5555 50 ng/ml, Patients (ASA)): 8.6 ± 2.1 MFI | VTNR (CD51/61), Mean Fluorescence Intensity ([6]; E5555 50 ng/ml, Volunteers): 9.1 ± 1.0 MFI | VTNR (CD51/61), Mean Fluorescence Intensity [6, 11]: 9.0 ± 2.4 MFI | VTNR (CD51/61), Mean Fluorescence Intensity [6, 12]: 8.3 ± 14 MFI | VTNR (CD51/61), Mean Fluorescence Intensity ([6]; E5555 100 ng/ml, Volunteers): 9.6 ± 1.1 MFI | GP IIb/IIIa activity with PAC-1, effect in words [7, 8]: significant reduction | PAC-1 (GPIIb/IIIa), Mean Fluorescence Intensity [7, 9]: 5.9 ± 0.8 MFI | PAC-1 (GPIIb/IIIa), Mean Fluorescence Intensity ([7]; E5555 20 ng/ml, Patients (ASA)): 10.4 ± 1.2 MFI | PAC-1 (GPIIb/IIIa), Mean Fluorescence Intensity ([7]; E5555 20 ng/ml, Volunteers): 10.7 ± 1.3 MFI | PAC-1 (GPIIb/IIIa), Mean Fluorescence Intensity [7, 10]: 6.2 ± 1.0 MFI | PAC-1 (GPIIb/IIIa), Mean Fluorescence Intensity ([7]; E5555 50 ng/ml, Patients (ASA)): 10.1 ± 2.0 MFI | PAC-1 (GPIIb/IIIa), Mean Fluorescence Intensity ([7]; E5555 50 ng/ml, Volunteers): 9.2 ± 1.5 MFI | PAC-1 (GPIIb/IIIa), Mean Fluorescence Intensity [7, 11]: 6.3 ± 0.7 MFI | PAC-1 (GPIIb/IIIa), Mean Fluorescence Intensity [7, 12]: 11.7 ± 2.1 MFI | PAC-1 (GPIIb/IIIa), Mean Fluorescence Intensity ([7]; E5555 100 ng/ml, Volunteers): 9.9 ± 2.0 MFI
